Measured values reported in US20220359084A1, “Methods of Treatments Based Upon Molecular Characterization of Breast Cancer” (The Board of Trustees of the Leland Stanford Junior …, priority 2019, published 2022).

How the values were obtained:
[1] = test system: PDOs derived from the 19006 patient; assay: Patient derived organoid (PDO) viability, AlamarBlue, patient 19006; type: cell-based; settings: Homo sapiens, 192 h, ER-positive PDOs categorized into IntClust4, 19006 patient (FIGS. 52A and 52B), 8 days treatment, 'on the order of', units given within the value
Description: FIGS. 52A and 52B provide viability curves of patient derived organoids derived from patient 19006, generated in accordance with various embodiments of the invention.
(§1) To assess breast cancer PDOs, the organoids were digested into single cells with TrypLE (Gibco). Cells are strained with a 100 μm filter then seeded as 10,000 cells per well with 10 μl […] (BME) (Cultrex) in a black, clear bottom 96-well plate and covered with 100 μl breast organoid media. Cells are grown for 4 days to form small spheroids. Cells were treated with 6 concentrations of different targeted Therapies (including but not limited to capivasertib, ipatasertib, PF4706871, M2698, alpelisib), as well as negative control (DMSO) and positive control (Triton X-100) in duplicate for 8 days, with drug media refreshed on day 5. On day 8, the plates are manually checked under the microscope to ensure the positive control drug(s) had effectively killed organoids, and that organoids present in the negative control wells were healthy. Cell viability is assessed using AlamarBlue (Thermofisher) by adding the dye to the media in final concentration of 1:10, followed by incubation for 4 hours at 37° C., and […] measurement using a microplate reader (Molecular Devices). IC50 values are computed using R package drc. Averages of IC50s from two to three independent experiments were calculated and visualized using R.
Likewise, capivasertib, ipatasertib, and M22698, but not alpelisib and PF4706871, each provide IC50 on the order of 100 nM to 10 μM for PDOs derived from the 19006 patient (FIGS. 53A and 53B).

[2] = test system: patient derived organoids derived from patient 19004; assay: Patient derived organoid (PDO) viability, AlamarBlue, FIGS. 53A and 53B; type: cell-based; settings: Homo sapiens, 192 h, ER-positive PDOs categorized into IntClust4, text says 19006 patient (FIGS. 53A and 53B), 8 days treatment, 'on the order of', units given within the value
Description: FIGS. 53A and 53B provide viability curves of patient derived organoids derived from patient 19004, generated in accordance with various embodiments of the invention.
as §1, with “IC50 values are computed using R package drc.” left out, “R. […]” for “R.”

[3] = test system: patients with metastatic ER-positive breast cancer; assay: Progression free survival by molecular subgroup in a prospective cohort of 812 patients; type: in vivo, human; settings: for progression free survival after endocrine therapy, high-risk vs lower risk integrative cluster groups: endocrine therapy (fulvestrant or tamoxifen), pooled, groups averaged together, FIG. 47, adj. P=0.0075
Text: The ability of chemotherapy, targeted therapies, and endocrine therapies on patients within particular molecular subgroups was examined in a prospective cohort of 812 patients with metastatic ER-positive breast cancer. Provided in FIG. […]

[4] = general statement, no test described; cited from earlier work

NC(=O)c1cccc2c(N[C@H](CN3CCC3)c3ccc(Cl)c(C(F)(F)F)c3)ncnc12 [M22698] gave an IC50 [1] of 0.1 to 10 µM and an IC50 [2] of 0.1 to 10 µM.

Cc1nc(NC(=O)N2CCC[C@H]2C(N)=O)sc1-c1ccnc(C(C)(C)C(F)(F)F)c1 [alpelisib] gave an IC50 [1] of 0.1 to 10 µM.

For CO[C@H]1C[C@@H]2CC[C@@H](C)[C@@](O)(O2)C(=O)C(=O)N2CCCC[C@H]2C(=O)O[C@H]([C@H](C)C[C@@H]2CC[C@@H](OCCO)[C@H](OC)C2)CC(=O)[C@H](C)/C=C(\C)[C@@H](O)[C@@H](OC)C(=O)[C@H](C)C[C@H](C)/C=C/C=C/C=C/1C [everolimus], the “progression free survival probability, with vs without mTOR antagonist treatment” value ([3]; IntClust1 patients, FIG. 45, adj. P value=0.023) was “profoundly greater survival probability”.

With C[C@]12CC[C@@H]3c4ccc(O)cc4C[C@@H](CCCCCCCCC[S+]([O-])CCCC(F)(F)C(F)(F)F)[C@H]3[C@@H]1CC[C@@H]2O (stereo partly drawn) [fulvestrant] the “progression free survival probability, aromatase inhibitor vs fulvestrant treatment” value ([3]; IntClust1, IntClust2 and IntClust6 patients (averaged together), FIG. 48, adj. P value=0.004) was “patients receiving an aromatase inhibitor had greater survival probability than patients receiving fulvestrant”, the “progression free survival probability, fulvestrant vs aromatase inhibitor treatment” value ([3]; IntClust9 patients, FIG. 49, adj. P value=0.361) was “slightly, yet insignificantly, greater survival probability” and the “progression free survival after endocrine therapy, high-risk vs lower risk integrative cluster groups” value [3] was “lower risk groups have higher probability of progression free survival than high-risk groups”. For the same compound, the oral availability [4] was “low”.

CC(C)NC[C@@H](C(=O)N1CCN(c2ncnc3c2[C@H](C)C[C@H]3O)CC1)c1ccc(Cl)cc1 [ipatasertib] gave an IC50 [1] of 0.1 to 10 µM and an IC50 [2] of 0.1 to 10 µM.

For CN(C)C(=O)c1cc2cnc(Nc3ccc(N4CCNCC4)cn3)nc2n1C1CCCC1 [ribociclib], the “progression free survival probability, with vs without CDK4/6 antagonist treatment” value ([3]; IntClust2 patients, pooled CDK4/6 inhibitor group, FIG. 46, adj. P value=0.016) was “profoundly greater survival probability”.

For CC/C(=C(\c1ccccc1)c1ccc(OCCN(C)C)cc1)c1ccccc1 [tamoxifen], the “progression free survival after endocrine therapy, high-risk vs lower risk integrative cluster groups” value [3] was “lower risk groups have higher probability of progression free survival than high-risk groups”.
